According to patent publication US11248243B2, “Process for the biological production of methacrylic acid and derivatives thereof” (MITSUBISHI CHEMICAL UK LIMITED, priority 2015, dated 2022):

How the values were obtained:
acyl-CoA synthetase AcsA = settings: published value, cited from earlier work
[1] = target: T1, short chain acyl-CoA oxidase (ACX4) (Arabidopsis thaliana, UniProt Q96329); assay: Activity test of ACX4 cell free extract, HPLC analysis; type: biochemical; settings: ACX4 cell free extract 0.8 mg/ml, isobutyryl-CoA 500 μM, FAD 10 μM, HEPES pH 7.5, 30° C., 30 min
T1 construct: made in house; host or cells: E. coli BL21 (DE3) pLysS pET20b(+)::ACX4, cell free extract
T1 sequence (Q96329 1-436): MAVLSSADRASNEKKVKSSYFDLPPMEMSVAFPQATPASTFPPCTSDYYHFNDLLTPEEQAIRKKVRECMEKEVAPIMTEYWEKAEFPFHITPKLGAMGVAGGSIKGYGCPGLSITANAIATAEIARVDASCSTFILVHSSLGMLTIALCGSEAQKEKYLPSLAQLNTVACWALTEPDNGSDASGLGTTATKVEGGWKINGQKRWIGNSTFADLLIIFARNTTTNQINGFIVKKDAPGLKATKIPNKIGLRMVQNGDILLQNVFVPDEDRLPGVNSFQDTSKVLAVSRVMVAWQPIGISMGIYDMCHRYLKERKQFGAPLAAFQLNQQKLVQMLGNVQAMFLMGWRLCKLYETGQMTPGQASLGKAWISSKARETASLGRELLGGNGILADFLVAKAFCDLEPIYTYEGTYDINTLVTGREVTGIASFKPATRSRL
Protocol: To prepare a cell free extract of the ACX4 enzyme, one of the cell pellets that was prepared previously was re-suspended in HEPES (50 mM, pH 7.5) buffer (6 ml) that was supplemented with flavin adenine dinucleotide (FAD) at a final concentration of 10 μM. The re-suspended cells were then lysed in a Constant Systems One Shot cell disrupter. The lysate was centrifuged at 18,000 g for 15 min at 4° C. and the supernatant of this was further centrifuged at […] for 60 min at 4° C. The supernatant was concentrated in a VivaSpin Viva6 10,000 Molecular Weight Cut-Off centrifugal concentrator, centrifuging at 10,000 g at 18° C. until a six-fold volume reduction of the retentate. […] The total protein concentration in the retentate was determined using the BioRad DC protein assay kit, using bovine serum albumin as the protein standard. […]
The activity test of ACX4 was performed in 1.5 ml micro-centrifuge tubes. […] The reaction was incubated at 30° C. in the 1.5 ml micro-centrifuge tube, with shaking at 250 rpm for 30 min and the final reaction product was analysed by analytical HPLC (FIG. 5). […]
In order to confirm that the methacrylyl-CoA peak was genuine, and that it was not an isobutyryl-CoA peak with a shifted elution time, the sample was spiked with isobutyryl-CoA and analysed by HPLC again. […]

[2] = target: T2, 4-hydroxybenzoyl-CoA thioesterase (4HBT) (Arthrobacter sp, UniProt Q04416); assay: Crude enzymatic assays of 4HBT cell free extract (DTNB, 412 nm); type: biochemical, Arthrobacter sp. strain SU; settings: cell free protein extract 1 mg/ml
T2 construct: made in house; host or cells: E. coli BL21 (DE3) pLysS pET20b(+)::4HBT, cell free extract
Protocol: To prepare a cell free extract of the 4HBT enzyme, one of the cell pellets of E. coli BL21 (DE3) pLysS pET20b(+)::4HBT that was prepared previously was re-suspended in HEPES (50 mM, pH 7.5) assay buffer and lysed in a Constant Systems One Shot cell disrupter. The cell lysate was centrifuged at 18,000 g for 15 min at 4° C. and the supernatant of this was centrifuged at 57,750 g for a further 60 min at 4° C. This supernatant was washed using a VivaSpin Viva6 10,000 Molecular Weight Cut-Off centrifugal concentrator, centrifuging at 10,000 g at 18° C. until a six-fold volume reduction, followed by a six-fold re-dilution in the HEPES assay buffer and a further 6-fold volume reduction in the centrifugal concentrator. The total protein concentration of the cell free extracts from E. coli BL21 (DE3) pLysS pET20b(+)::4HBT overexpression cultures was performed using the BioRad DC assay kit, using bovine serum albumin as the protein standard. The same procedure was followed in order to prepare cell free extracts from a cell pellet of the E. coli BL21 (DE3) pLysS pET20b(+), the negative control strain.
Crude enzymatic assays of 4HBT were performed in cuvettes (1 ml) containing cell free protein extract (1 mg·ml^−1), methacrylyl-CoA (approximately 100 μM), 5′5-dithiobis-(2-nitrobenzoic) acid (DTNB) (500 μM). Reactions were started by the addition of substrate and were monitored at 412 nm. […]

T2 sequence (Q04416 whole entry): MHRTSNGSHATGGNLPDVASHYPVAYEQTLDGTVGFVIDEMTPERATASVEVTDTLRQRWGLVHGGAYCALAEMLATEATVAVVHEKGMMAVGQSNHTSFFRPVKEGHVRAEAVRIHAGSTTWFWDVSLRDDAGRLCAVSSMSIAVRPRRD

SMILES: CC(C)C(=O)O [isobutyric acid]
- turnover number (kcat) (acyl-CoA synthetase AcsA): 10.6 s⁻¹
- Km (acyl-CoA synthetase AcsA; read-out: Michaelis constant (Km)): 140 µM

SMILES: CC(C)C(=O)SCCNC(=O)CCNC(=O)[C@H](O)C(C)(C)COP(=O)(O)OP(=O)(O)OC[C@H]1O[C@@H](n2cnc3c(N)ncnc32)[C@H](O)[C@@H]1OP(=O)(O)O [isobutyryl-CoA]
- oxidation of substrate by ACX4 [1]: oxidises

SMILES: C=C(C)C(=O)SCCNC(=O)CCNC(=O)[C@H](O)C(C)(C)COP(=O)(O)OP(=O)(O)OC[C@H]1O[C@@H](n2cnc3c(N)ncnc32)[C@H](O)[C@@H]1OP(=O)(O)O [methacrylyl-CoA]
- substrate selectivity of 4HBT ([2]; methacrylyl-CoA versus isobutyryl-CoA): selectivity for methacrylyl-CoA over isobutyryl-CoA
- hydrolysis of substrate by 4HBT ([2]; substrate approximately 100 μM, DTNB 500 μM): catalysed the hydrolysis
